Columns and labels:
[1] = Sun screening properties (UV absorption); assay type: physicochemical; details: 92.8% acetonitrile+7.2% DMSO
Source text: This compound has the following sun screening properties:
λmax=350 nm (92.8% acetonitrile+7.2% DMSO)

[2] = Photostability: irradiation of an oily film in a solar simulator; assay type: physicochemical; details: one hour of irradiation in a solar simulator (UVA=18.6 mW/cm^2, UVB=0.6 mW/cm^2); oily film containing 0.5% of the compound
[3] = RPE (Resonance Paramagnetic Electronic) study of pro-oxidizing activity under irradiation; details: formulated medium, irradiation under the same conditions as the photostability test (solar simulator)

| λmax [1] [nm] | εmax ([1]; at λmax) | E1% ([1]; at λmax) | residual level of the compound after irradiation [2] [%] | Compound | pro-oxidizing activity [3] |
| --- | --- | --- | --- | --- | --- |
| 328 | 8100 1.mol^−1.cm^−1 | – | – | O=C1Nc2ccccc2/C1=C1\CCCN1 [Compound 3, 3-Pyrrolidin-2-ylidene-1,3-dihydroindol-2-one] | – |
| 326 | 22600 1.mol^−1.cm^−1 | – | – | CCN1C(=O)/C(=C2/CCCN2)c2ccccc21 [Compound 2, 1-Ethyl-3-pyrrolidin-2-ylidine-1,3-dihydroindol-2-one] | – |
| 350 | 17501 1.mol^−1.cm^−1 | 722 | 92 | CCN1C(=O)/C(=C2/CCCN2C)c2ccccc21 [Compound 1, 1-Ethyl-3-(1-methylpyrrolidin-2-ylidene)-1,3-dihydroindol-2-one] | does not manifest any pro-oxidizing activity |
